Five compounds from patent US4206120A, “Oxaazabicycloheptane antibiotics” (Beecham Group Limited, priority 1976, dated 1980) can be followed below.

Where only a bound is given, the exact number is not on record here.

One data set relates to mice. As to the kind of experiment: Acute toxicity in mice, subcutaneous. The data set is classed as in vivo.
The target in data set [1] is T1, Lactamase, Pseudomonas aerogenosa Dalgleish (Pseudomonas aeruginosa, UniProt P16897).
T1 construct: Source of; endogenous in cells; host or cells: Pseudomonas aeruginosa strain Dalgleish
T1 sequence (P16897 18-288): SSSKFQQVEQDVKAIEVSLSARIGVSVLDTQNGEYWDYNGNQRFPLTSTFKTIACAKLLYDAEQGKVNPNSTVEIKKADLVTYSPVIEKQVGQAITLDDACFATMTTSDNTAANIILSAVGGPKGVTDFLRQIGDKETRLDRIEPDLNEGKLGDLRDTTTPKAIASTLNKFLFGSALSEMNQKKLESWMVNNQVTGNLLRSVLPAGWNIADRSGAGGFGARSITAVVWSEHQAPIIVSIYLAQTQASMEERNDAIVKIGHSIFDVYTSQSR
As to the kind of experiment: Lactamase inhibition, enzyme from Pseudomonas aerogenosa Dalgleish. In kind it is biochemical. To be noted: source of enzyme Pseudomonas aerogenosa Dalgleish; read-out: Lactamase inhibition I50 (converted).

In data set [2] the target is Lactamase, Kleb. aerogenes E70. The data set is described as follows: Lactamase inhibition, enzyme from Kleb. aerogenes E70. In kind it is biochemical. To be noted: source of enzyme Kleb. aerogenes E70.
Data set [3] deals with T2, Lactamase, Enterobacter P99 (Enterobacter cloacae, UniProt P05364).
T2 construct: Source of; endogenous in cells; host or cells: Enterobacter (cloacae) strain P99
T2 sequence (P05364 21-381): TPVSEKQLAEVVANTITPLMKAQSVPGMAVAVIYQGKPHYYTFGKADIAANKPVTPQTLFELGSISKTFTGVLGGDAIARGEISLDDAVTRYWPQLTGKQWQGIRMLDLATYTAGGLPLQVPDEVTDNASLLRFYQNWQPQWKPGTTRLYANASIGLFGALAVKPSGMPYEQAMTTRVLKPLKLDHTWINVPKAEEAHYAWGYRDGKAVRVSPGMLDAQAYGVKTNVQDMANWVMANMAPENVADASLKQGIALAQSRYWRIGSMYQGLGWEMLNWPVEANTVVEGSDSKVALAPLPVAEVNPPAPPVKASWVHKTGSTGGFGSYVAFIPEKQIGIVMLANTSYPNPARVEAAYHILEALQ
The data set is described as follows: Lactamase inhibition, enzyme from Enterobacter P99. In kind it is biochemical. As to conditions: source of enzyme Enterobacter P99; read-out: Lactamase inhibition I50 (converted).

The next data set addresses T3, Lactamase, E. coli JT 4 (Escherichia coli, UniProt P62593).
T3 construct: Source of; endogenous in cells; host or cells: Escherichia coli strain JT 4
As to the kind of experiment: Lactamase inhibition, enzyme from E. coli JT 4. In kind it is biochemical. To be noted: source of enzyme E. coli JT 4; read-out: Lactamase inhibition I50 (converted).

The target of data set [4] is T4, Lactamase, Staph. aureus Russell (Staphylococcus aureus, UniProt P00807).
T4 construct: Source of; endogenous in cells; host or cells: Staphylococcus aureus strain Russell
T4 sequence (P00807 25-281): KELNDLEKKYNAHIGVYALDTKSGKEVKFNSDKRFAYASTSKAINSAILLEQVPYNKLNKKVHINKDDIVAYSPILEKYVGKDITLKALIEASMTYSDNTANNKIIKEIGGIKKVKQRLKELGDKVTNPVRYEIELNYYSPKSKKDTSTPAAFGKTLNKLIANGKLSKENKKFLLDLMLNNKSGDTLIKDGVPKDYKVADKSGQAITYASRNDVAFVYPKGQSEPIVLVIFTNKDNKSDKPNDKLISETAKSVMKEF
As to the kind of experiment: Lactamase inhibition, enzyme from Staph. aureus Russell. The data set is classed as biochemical. To be noted: source of enzyme Staph. aureus Russell; read-out: Lactamase inhibition I50 (converted).

The target of data set [5] is Lactamase, Proteus mirabilis C889. As to the kind of experiment: Lactamase inhibition, enzyme from Proteus mirabilis C889. The data set is classed as biochemical. As to conditions: source of enzyme Proteus mirabilis C889.
The test system of another data set is Klebsiella aerogenes E70. As to the kind of experiment: Effect on MIC of ampicillin against β-lactamase producing bacteria, Klebsiella E 70. In kind it is cell-based. As to conditions: ampicillin alone. Here is the method:
(§1) a. Compounds of this invention were tested by conventional methods to determine their effect on the MIC (minimum inhibitory concentration) values of ampicillin against certain β-lactamase producing bacteria. The results for the compounds of the formula [drawing 124] were as follows: […]

Data set [6] has as its system Staphylococcus aureus Russell. As to the kind of experiment: Effect on MIC of ampicillin against β-lactamase producing bacteria, Staphylococcus aureus Russell. In kind it is cell-based. As to conditions: ampicillin alone, Staph. aureus Russell. Here is the method: as §1

T3 sequence (P62593 24-286 limits assumed): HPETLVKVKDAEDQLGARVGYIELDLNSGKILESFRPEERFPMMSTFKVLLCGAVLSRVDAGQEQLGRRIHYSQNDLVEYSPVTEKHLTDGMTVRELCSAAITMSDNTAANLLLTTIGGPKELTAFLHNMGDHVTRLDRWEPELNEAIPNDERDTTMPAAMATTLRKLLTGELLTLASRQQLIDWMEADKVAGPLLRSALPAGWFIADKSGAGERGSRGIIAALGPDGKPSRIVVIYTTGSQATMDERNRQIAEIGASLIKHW

Turning to `O=C(O)[C@H]1/C(=C/c2ccccc2)O[C@@H]2CC(=O)N21` (relative stereo) [Z1=CO2 Na, Z2=H, Z3=C6 H5, Sodium (Z)-(2RS,5RS)-(3-benzylidene)-7-oxo-4-oxa-1-azabicyclo[3,2,0]-heptane-2-carboxylate], the “deaths in a group of mice” value in the data set with mice (subcutaneously at 1000 mg/kg) is on record as “did not cause any deaths”.
Regarding `C[C@@H](NC(=O)/C=C1\CN2C(=O)C[C@H]2O1)c1ccccc1` [Example 5-R-epimer, (E)-5-R-3-[N-(R-1-Phenylethyl)carbamoylmethylene]-4-oxa-1-azabicyclo [3.2.0]heptan-7-one], the IC50 in data set [1] is 2.39 µM; in [3], 1.47 µM; at Lactamase, E. coli JT 4 it was 1.47 µM; in [4] it was 0.918 µM. In addition, the “Lactamase inhibition I50” value in data set [2] turned out to be 2.4 µg/mL; in [5] it was 0.6 µg/mL.
Turning to `C[C@@H](NC(=O)/C=C1\CN2C(=O)C[C@@H]2O1)c1ccccc1` [Example 5-S-epimer, (E)-5-S-[N-(R-1-Phenylethyl)carbamoylmethylene]-4-oxa-1-azabicyclo[3.2.0]heptan-7-one], the IC50 is 64.6 µM in data set [1]; 4.41 µM in [3]; 21.3 µM on Lactamase, E. coli JT 4; 47.7 µM in data set [4]. The entries for the “Lactamase inhibition I50” value in [2] and in [5] were more than 40 µg/mL and 8.8 µg/mL, respectively.
For `O=C(O)/C(=C1\CN2C(=O)CC2O1)c1ccccc1` (stereo not shown) [Z1=H, Z2=CO2 Na, Z3=C6 H5, Sodium (E)-7-oxo-4-oxa-1-azabicyclo[3.2.0]heptane-3-(benzylidene-1-carboxylate)], the “deaths in a group of mice” value in the data set on mice (subcutaneously at 250 mg/kg) is “did not cause any deaths”.
One may read the MIC as the lowest concentration that inhibits growth of the organism. In the case of `CC1(C)S[C@@H]2[C@H](NC(=O)[C@H](N)c3ccccc3)C(=O)N2[C@H]1C(=O)O` [ampicillin], the minimum inhibitory concentration (MIC) in the data set on Klebsiella aerogenes E70 was more than 2000 mg/L; in data set [6], 250 mg/L.
